Test results reported in US20250320224A1 (DOMAIN THERAPEUTICS, priority 2022, published 2025).
Where a name gives a salt, the structure may show the parent alone.

Target: T1, human PAR-2 (hPAR-2) receptor (Homo sapiens, UniProt P55085)
T1 construct: expressed in HEK-293 cells in an endogenous manner; endogenous in cells; host or cells: HEK-293
T1 sequence (P55085 26-397): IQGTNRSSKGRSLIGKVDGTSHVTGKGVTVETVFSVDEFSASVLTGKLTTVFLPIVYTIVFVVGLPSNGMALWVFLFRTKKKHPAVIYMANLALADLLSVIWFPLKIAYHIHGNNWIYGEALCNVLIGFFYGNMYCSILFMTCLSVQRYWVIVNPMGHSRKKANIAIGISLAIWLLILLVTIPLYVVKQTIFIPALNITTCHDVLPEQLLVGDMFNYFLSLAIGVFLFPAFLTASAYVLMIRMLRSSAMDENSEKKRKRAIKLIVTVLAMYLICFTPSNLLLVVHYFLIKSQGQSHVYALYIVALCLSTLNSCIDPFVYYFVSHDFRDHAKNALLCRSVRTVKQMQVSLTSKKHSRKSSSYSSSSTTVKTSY
Experiment: In vitro human PAR-2 functional antagonist activity using calcium assays
Format: cell-based
Conditions: hPAR-2 endogenously expressed in HEK-293 cells; stimulated by 2-Furoyl-LIGRLO-NH2 peptide; Fluo4AM intracellular calcium, FLIPR Tetra
Procedure, shortened: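 Antagonism was measured as reduced calcium response to 2-Furoyl-LIGRLO-NH2 (dosed at its 80%-of-maximum concentration), recorded for 5 min. This followed a 10 min compound pre-incubation on Fluo4AM-loaded HEK-293 cells expressing native hPAR-2. Signals were normalised to buffer and agonist-alone controls.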

Structure (SMILES) | IC50 [nM]
Cc1nc(N2CCN(C(=O)c3ccc4c(n3)C(C)(C)CN4c3ccc(Cl)c(F)c3)C(C)(C)C2)sc1C(=O)O [Example 69, 2-(4-(1-(4-chloro-3-fluorophenyl)-3,3-dimethyl-2,3-dihydro-1H-pyrrolo[3,2-b]pyridine-5-carbonyl)-3,3-dimethylpiperazin-1-yl)-4-methylthiazole-5-carboxylic acid] | < 500
Cc1nc(N2CCN(C(=O)c3ccc4c(n3)C(C)(C)CN4c3ccc(Cl)c(F)c3)C(C)(C)C2)sc1CC(=O)O [Example 71, 2-(2-(4-(1-(4-chloro-3-fluorophenyl)-3,3-dimethyl-2,3-dihydro-1H-pyrrolo[3,2-b]pyridine-5-carbonyl)-3,3-dimethylpiperazin-1-yl)-4-methylthiazol-5-yl)acetic acid] | < 500
Cc1sc(N2CCN(C(=O)c3ccc4c(n3)C(C)(C)CN4c3ccc(Cl)c(F)c3)C(C)(C)C2)nc1C(=O)O [Example 73, 2-(4-(1-(4-chloro-3-fluorophenyl)-3,3-dimethyl-2,3-dihydro-1H-pyrrolo[3,2-b]pyridine-5-carbonyl)-3,3-dimethylpiperazin-1-yl)-5-methylthiazole-4-carboxylic acid hydrochloride] | < 500
CC1(C)CN(c2ccc(Cl)c(F)c2)c2ccc(C(=O)N3CCNC(=O)CC3(C)C)nc21 [Example 74, 1-(1-(4-chloro-3-fluorophenyl)-3,3-dimethyl-2,3-dihydro-1H-pyrrolo[3,2-b]pyridine-5-carbonyl)-7,7-dimethyl-1,4-diazepan-5-one] | < 500
CC1(C)CN(c2ccc(Cl)c(F)c2)c2ccc(C(=O)N3CCC4(CCNC4=O)CC3)nc21 [Example 75, 8-(1-(4-chloro-3-fluorophenyl)-3,3-dimethyl-2,3-dihydro-1H-pyrrolo[3,2-b]pyridine-5-carbonyl)-2,8-diazaspiro[4.5]decan-1-one] | 500 to 10000
CC1(C)CN(c2ccc(Cl)c(F)c2)c2ccc(C(=O)N3CCC4(CC3)CNC(=O)C4)nc21 [Example 76, 8-(1-(4-chloro-3-fluorophenyl)-3,3-dimethyl-2,3-dihydro-1H-pyrrolo[3,2-b]pyridine-5-carbonyl)-2,8-diazaspiro[4.5]decan-3-one] | 500 to 10000
CC1(C)CN(c2ccc(Cl)c(F)c2)c2ccc(C(=O)N3CCC(N4CCNC4=O)CC3)nc21 [Example 77, 1-(1-(1-(4-chloro-3-fluorophenyl)-3,3-dimethyl-2,3-dihydro-1H-pyrrolo[3,2-b]pyridine-5-carbonyl)piperidin-4-yl)imidazolidin-2-one] | 500 to 10000
CC1(C)CN(c2ccc(Cl)c(F)c2)c2ccc(C(=O)N3CCN(c4nc(C(F)(F)F)c(C(=O)O)s4)CC3(C)C)nc21 [Example 79, 2-(4-(1-(4-chloro-3-fluorophenyl)-3,3-dimethyl-2,3-dihydro-1H-pyrrolo[3,2-b]pyridine-5-carbonyl)-3,3-dimethylpiperazin-1-yl)-4-(trifluoromethyl)thiazole-5-carboxylic acid] | < 500
CN(C)C(=O)c1csc(N2CCN(C(=O)c3ccc4c(n3)C(C)(C)CN4c3ccc(Cl)c(F)c3)C(C)(C)C2)n1 [Example 80, 2-(4-(1-(4-chloro-3-fluorophenyl)-3,3-dimethyl-2,3-dihydro-1H-pyrrolo[3,2-b]pyridine-5-carbonyl)-3,3-dimethylpiperazin-1-yl)-N,N-dimethylthiazole-4-carboxamide] | < 500
CC1(C)CN(c2ccc(Cl)c(F)c2)c2ccc(C(=O)N3CCN(c4nc(C(=O)N5CCC(O)CC5)cs4)CC3(C)C)nc21 [Example 81, (1-(4-chloro-3-fluorophenyl)-3,3-dimethyl-2,3-dihydro-1H-pyrrolo[3,2-b]pyridin-5-yl)(4-(4-(4-hydroxypiperidine-1-carbonyl)thiazol-2-yl)-2,2-dimethylpiperazin-1-yl)methanone] | < 500
CC1(C)CN(c2ccc(Cl)c(F)c2)c2ccc(C(=O)N3CCN(c4nc(C(=O)N5CCOCC5)cs4)CC3(C)C)nc21 [Example 82, (1-(4-chloro-3-fluorophenyl)-3,3-dimethyl-2,3-dihydro-1H-pyrrolo[3,2-b]pyridin-5-yl)(2,2-dimethyl-4-(4-(morpholine-4-carbonyl)thiazol-2-yl)piperazin-1-yl)methanone] | < 500
CC1(C)CN(c2ccc(Cl)c(F)c2)c2ccc(C(=O)N3CCN(c4nc(C(N)=O)cs4)CC3(C)C)nc21 [Example 83, 2-(4-(1-(4-chloro-3-fluorophenyl)-3,3-dimethyl-2,3-dihydro-1H-pyrrolo[3,2-b]pyridine-5-carbonyl)-3,3-dimethylpiperazin-1-yl)thiazole-4-carboxamide] | < 500
Cc1ccc(N2CC(C)(C)c3nc(C(=O)N4CCN(c5cc(C)c(C(=O)O)c(C)n5)CC4(C)C)ccc32)cc1F [Example 85, 6-(4-(1-(3-fluoro-4-methylphenyl)-3,3-dimethyl-2,3-dihydro-1H-pyrrolo[3,2-b]pyridine-5-carbonyl)-3,3-dimethylpiperazin-1-yl)-2,4-dimethylnicotinic acid] | < 500
Cc1cc(N2CCN(C(=O)c3ccc4c(n3)OC(C)(C)CN(c3ccc(Cl)c(F)c3)C4)C(C)(C)C2)nc(C)c1C(=O)O [Example 87, 6-(4-(4-(4-chloro-3-fluorophenyl)-2,2-dimethyl-2,3,4,5-tetrahydropyrido[3,2-f][1,4]oxazepine-8-carbonyl)-3,3-dimethylpiperazin-1-yl)-2,4-dimethylnicotinic acid] | > 10000
Cc1cc(N2CCN(C(=O)c3ccc4c(n3)C3(CN4c4ccc(Cl)c(F)c4)CC(F)(F)C3)C(C)(C)C2)nc(C)c1C(=O)O [Example 89, 6-(4-(1′-(4-chloro-3-fluorophenyl)-3,3-difluoro-1′,2′-dihydrospiro[cyclobutane-1,3′-pyrrolo[3,2-b]pyridine]-5′-carbonyl)-3,3-dimethylpiperazin-1-yl)-2,4-dimethylnicotinic acid] | < 500
Cc1cc(N2CCN(C(=O)c3ccc4c(n3)C3(C=C(F)C3)CN4c3ccc(Cl)c(F)c3)C(C)(C)C2)nc(C)c1C(=O)O (stereo not drawn) [Example 90, 6-(4-(1′-(4-chloro-3-fluorophenyl)-3-fluoro-1′,2′-dihydrospiro[cyclobutane-1,3′-pyrrolo[3,2-b]pyridin]-2-en-5′-carbonyl)-3,3-dimethylpiperazin-1-yl)-2,4-dimethylnicotinic acid] | < 500
CO[C@@H]1CN(C(=O)c2ccc3c(n2)C(C)(C)CN3c2ccc(Cl)c(F)c2)CC[C@H]1CC(=O)O [Example 92, 2-((3S,4S)-1-(1-(4-chloro-3-fluorophenyl)-3,3-dimethyl-2,3-dihydro-1H-pyrrolo[3,2-b]pyridine-5-carbonyl)-3-methoxypiperidin-4-yl)acetic acid] | 500 to 10000
CO[C@H]1CN(C(=O)c2ccc3c(n2)C(C)(C)CN3c2ccc(Cl)c(F)c2)CC[C@@H]1CC(=O)O [Example 94, 2-((3R,4R)-1-(1-(4-chloro-3-fluorophenyl)-3,3-dimethyl-2,3-dihydro-1H-pyrrolo[3,2-b]pyridine-5-carbonyl)-3-methoxypiperidin-4-yl)acetic acid] | 500 to 10000
CO[C@@H]1CN(C(=O)c2ccc3c(n2)C(C)(C)CN3c2ccc(Cl)c(F)c2)CC[C@@H]1CC(=O)O [Example 98, 2-((3S,4R)-1-(1-(4-chloro-3-fluorophenyl)-3,3-dimethyl-2,3-dihydro-1H-pyrrolo[3,2-b]pyridine-5-carbonyl)-3-methoxypiperidin-4-yl)acetic acid] | 500 to 10000
Cc1cc(N2CCN(C(=O)c3cnc4c(n3)C(C)(C)CN4c3ccc(Cl)c(F)c3)C(C)(C)C2)nc(C)c1C(=O)O [Example 100, 6-(4-(5-(4-chloro-3-fluorophenyl)-7,7-dimethyl-6,7-dihydro-5H-pyrrolo[2,3-b]pyrazine-2-carbonyl)-3,3-dimethylpiperazin-1-yl)-2,4-dimethylnicotinic acid] | < 500
CN1CCN(C(=O)c2csc(N3CCN(C(=O)c4ccc5c(n4)C(C)(C)CN5c4ccc(Cl)c(F)c4)C(C)(C)C3)n2)CC1 [Example 101, (1-(4-chloro-3-fluorophenyl)-3,3-dimethyl-2,3-dihydro-1H-pyrrolo[3,2-b]pyridin-5-yl)(2,2-dimethyl-4-(4-(4-methylpiperazine-1-carbonyl)thiazol-2-yl)piperazin-1-yl)methanone hydrochloride] | < 500
CCC1(CC)CN(c2ccc(Cl)c(F)c2)c2ccc(C(=O)N3CCN(c4cc(C)c(C(=O)O)c(C)n4)CC3(C)C)nc21 [Example 103, 6-(4-(1-(4-chloro-3-fluorophenyl)-3,3-diethyl-2,3-dihydro-1H-pyrrolo[3,2-b]pyridine-5-carbonyl)-3,3-dimethylpiperazin-1-yl)-2,4-dimethylnicotinic acid] | < 500
CC1(C)CN(c2ccc(Cl)c(F)c2)c2ccc(C(=O)N3CCN(c4cc(C(=O)O)ccn4)CC3(C)C)nc21 [Example 105, 2-(4-(1-(4-chloro-3-fluorophenyl)-3,3-dimethyl-2,3-dihydro-1H-pyrrolo[3,2-b]pyridine-5-carbonyl)-3,3-dimethylpiperazin-1-yl)isonicotinic acid] | < 500
CC1(C)CN(c2ccc(Cl)c(F)c2)c2ccc(C(=O)N3CCN(c4cnccc4C(=O)O)CC3(C)C)nc21 [Example 107, 3-(4-(1-(4-chloro-3-fluorophenyl)-3,3-dimethyl-2,3-dihydro-1H-pyrrolo[3,2-b]pyridine-5-carbonyl)-3,3-dimethylpiperazin-1-yl)isonicotinic acid] | 500 to 10000
